Assay results as given in patent US7196110B2, “N-substituted tricyclic 3-aminopyrazoles as inhibitors for the treatment of cell proliferative disorders” (Janssen Phamaceutica N.V., priority 2002, dated 2007).
Like-named read-outs stand apart in the source and are kept apart here.

Molecular target: T1, PDGF-receptor beta enzyme comprising the tyrosine kinase domain (Homo sapiens, UniProt P09619)
T1 construct: from amino acid 545 to 1106 of GenBank Access NO: AAA36427
Test: Inhibition of PDGF-receptor kinase activity (cell-free, PLC1 peptide, 33P Flashplate)
Format: biochemical
Details: for inhibition at 10 µM: read-out: Percent Inhibition @ 10 uM
In short: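 The IC50 is the inhibitor level halving kinase activity relative to inhibitor-free wells, measured as 33P captured on a streptavidin-bound biotin-PLC1 peptide. The reaction ran 60 min at 30 °C in pH 8 Tris buffer with 1 mM DTT, 5 μM ATP and the 545–1106 kinase-domain enzyme.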

[1] = PDGF-R kinase activity, compound at 10 uM
[2] = PDGF-R kinase activity, read-out: IC50

T1 sequence (P09619 545-1106): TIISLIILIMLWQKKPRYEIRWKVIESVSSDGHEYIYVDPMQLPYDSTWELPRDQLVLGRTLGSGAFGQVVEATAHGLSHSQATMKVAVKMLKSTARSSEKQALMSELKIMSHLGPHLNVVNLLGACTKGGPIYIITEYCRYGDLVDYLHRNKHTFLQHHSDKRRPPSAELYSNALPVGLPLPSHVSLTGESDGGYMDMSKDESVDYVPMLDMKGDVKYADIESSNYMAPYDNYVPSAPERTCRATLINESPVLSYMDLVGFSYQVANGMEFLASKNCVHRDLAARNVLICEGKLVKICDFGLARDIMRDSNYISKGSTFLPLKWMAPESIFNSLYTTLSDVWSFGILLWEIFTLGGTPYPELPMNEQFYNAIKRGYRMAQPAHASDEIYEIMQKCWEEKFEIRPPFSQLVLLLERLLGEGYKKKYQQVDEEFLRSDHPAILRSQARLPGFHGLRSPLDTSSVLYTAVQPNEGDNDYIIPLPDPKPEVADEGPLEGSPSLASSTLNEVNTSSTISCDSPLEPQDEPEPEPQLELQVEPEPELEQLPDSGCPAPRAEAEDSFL

inhibition at 10 µM [1] [%]	IC50 [2] [µM]	Percent Inhibition @ 10 uM (PDGF-R kinase activity, compound at 10 uM, 10 µM) [%]	IC50 (read-out: IC50 (μM) on PDGF-R kinase activity) [µM]	Compound
72.5	–	–	–	CCC1c2cc(OC)c(OC)cc2-c2c1c(Nc1cccc(Br)c1)nn2C(=O)c1ccccc1 (stereo not drawn) [Compound 546, [3-(3-Bromo-phenylamino)-4-ethyl-6,7-dimethoxy-4H-indeno[1,2-c]pyrazol-1-yl]-phenyl-methanone]
92	0.314	–	–	CCCC(=O)OCn1nc2c(c1Nc1cccc(F)c1)Cc1cc(OC)c(OC)cc1-2 [Compound 491, Butyric acid 3-(3-fluoro-phenylamino)-6,7-dimethoxy-4H-indeno[1,2-c]pyrazol-2-ylmethyl ester]
63	0.64	–	–	COc1cc2c(cc1OC)-c1n[nH]c(Nc3cc(C)cc(C)c3)c1C2 [Compound 206, (6,7-Dimethoxy-2,4-dihydro-indeno[1,2-c]pyrazol-3-yl)-(3,5-dimethyl-phenyl)-amine]
68	2.07	–	–	CCOC(=O)c1ccc(Nc2[nH]nc3c2Cc2cc(OC)c(OC)cc2-3)cc1 [Compound 10, 4-(6,7-Dimethoxy-2,4-dihydro-indeno[1,2-c]pyrazol-3-ylamino)-benzoic acid ethyl ester]
40	8.52	–	–	CCc1ccccc1Nc1[nH]nc2c1Cc1cc(OC)c(OC)cc1-2 [Compound 58, (6,7-Dimethoxy-2,4-dihydro-indeno[1,2-c]pyrazol-3-yl)-(2-ethyl-phenyl)-amine]
85	1.03	–	–	COc1cccc(Nc2[nH]nc3c2C(C)c2cc(OC(C)C)c(OC(C)C)cc2-3)c1 (stereo not drawn) [Compound 355, (6,7-Diisopropoxy-4-methyl-2,4-dihydro-indeno[1,2-c]pyrazol-3-yl)-(3-methoxy-phenyl)-amine]
75.5	1.79	–	–	COc1cc2c(cc1OC)-c1c(c(Nc3cccc(F)c3)nn1C(=O)NCCN(C)C)C2 [Compound 517, 3-(3-Fluoro-phenylamino)-6,7-dimethoxy-4H-indeno[1,2-c]pyrazole-1-carboxylic acid (2-dimethylamino-ethyl)-amide]
87	2.61	–	–	FC(F)(F)Oc1ccc(Nc2[nH]nc3c2Cc2cc(Cl)ccc2-3)cc1 [Compound 194, (6-Chloro-2,4-dihydro-indeno[1,2-c]pyrazol-3-yl)-(4-trifluoromethoxy-phenyl)-amine]
88	0.05	–	–	Fc1ccc2c(c1)Cc1c-2n[nH]c1Nc1ccc(C(F)(F)F)cc1 [Compound 237, (6-Fluoro-2,4-dihydro-indeno[1,2-c]pyrazol-3-yl)-(4-trifluoromethyl-phenyl)-amine]
83.5	0.291	–	–	COCCOC(=O)n1nc2c(c1Nc1cccc(F)c1)Cc1cc(OC)c(OC)cc1-2 [Compound 437, 3-(3-Fluoro-phenyl-amino)-6,7-dimethoxy-4H-indeno[1,2-c]pyrazole-2-carboxylic acid 2-methoxy-ethyl ester]
80	0.189	–	–	COc1ccc(OC)c(Nc2[nH]nc3c2C(C)c2ccccc2-3)c1 (stereo not drawn) [Compound 110, (2,5-Dimethoxy-phenyl)-(4-methyl-2,4-dihydro-indeno[1,2-c]pyrazol-3-yl)-amine]
100	0.000938	–	–	COc1cc2c(cc1OCC(O)CO)Cc1c-2n[nH]c1NCc1c(Cl)cccc1Cl (stereo not drawn) [Compound 450, 3-[3-(2,6-Dichloro-benzylamino)-7-methoxy-2,4-dihydro-indeno[1,2-c]pyrazol-6-yloxy]-propane-1,2-diol]
97	0.0459	–	–	COc1cc2c(cc1OC)-c1n[nH]c(NCc3ccccc3C)c1C2 [Compound 223, (6,7-Dimethoxy-2,4-dihydro-indeno[1,2-c]pyrazol-3-yl)-(2-methyl-benzyl)-amine]
99	0.0057	–	–	COc1cccc(Nc2[nH]nc3c2Cc2cc(OCCCN4CCN(C)CC4)c(OC)cc2-3)c1 [Compound 215, {7-Methoxy-6-[3-(4-methyl-piperazin-1-yl)-propoxy]-2,4-dihydro-indeno[1,2-c]pyrazol-3-yl}-(3-methoxy-phenyl)-amine]
82	0.267	–	–	COc1cc2c(cc1OC)-c1n[nH]c(NCc3cccc(Cl)c3Cl)c1C2 [Compound 326, (2,3-Dichloro-benzyl)-(6,7-dimethoxy-2,4-dihydro-indeno[1,2-c]pyrazol-3-yl)-amine]
89	1.45	–	–	COc1cc2c(cc1OC)-c1n[nH]c(NCc3ccccn3)c1C2 [Compound 563, (6,7-Dimethoxy-2,4-dihydro-indeno[1,2-c]pyrazol-3-yl)-pyridin-2-ylmethyl-amine]
60	–	–	–	COc1cc2c(cc1OC)-c1c(c(Nc3cccc(F)c3)nn1C(=O)NCCOCCOCCO)C2 [Compound 544, 3-(3-Fluoro-phenylamino)-6,7-dimethoxy-4H-indeno[1,2-c]pyrazole-1-carboxylic acid {2-[2-(2-hydroxy-ethoxy)-ethoxy]-ethyl}-amide]

inhibition at 10 µM [1] [%]	IC50 [2] [µM]	Percent Inhibition @ 10 uM (PDGF-R kinase activity, compound at 10 uM, 10 µM) [%]	IC50 (read-out: IC50 (μM) on PDGF-R kinase activity) [µM]	Compound
100	0.0155	–	–	OCCCOc1cc2c(cc1OCCCO)-c1n[nH]c(Nc3cccnc3)c1C2 [Compound 372, 3-[7-(3-Hydroxy-propoxy)-3-(pyridin-3-ylamino)-2,4-dihydro-indeno[1,2-c]pyrazol-6-yloxy]-propan-1-ol]
8	–	–	–	Cc1cccc(Nc2[nH]nc3c2Cc2cc(Cl)ccc2-3)c1 [Compound 197, (6-Chloro-2,4-dihydro-indeno[1,2-c]pyrazol-3-yl)-m-tolyl-amine]
27.5	12.2	–	–	COc1cc(Nc2[nH]nc3c2Cc2c(OC)cccc2-3)cc(C(F)(F)F)c1 [Compound 417, (5-Methoxy-2,4-dihydro-indeno[1,2-c]pyrazol-3-yl)-(3-methoxy-5-trifluoromethyl-phenyl)-amine]
39.5	–	–	–	COc1cc2c(cc1OC)-c1n[nH]c(N3CCc4cc(Br)ccc43)c1C2 [Compound 567, 3-(5-Bromo-2,3-dihydro-indol-1-yl)-6,7-dimethoxy-2,4-dihydro-indeno[1,2-c]pyrazole]
78	2.48	–	–	CNCCNC(=O)n1nc(Nc2cccc(F)c2)c2c1-c1cc(OC)c(OC)cc1C2 [Compound 524, 3-(3-Fluoro-phenylamino)-6,7-dimethoxy-4H-indeno[1,2-c]pyrazole-1-carboxylic acid (2-methylamino-ethyl)-amide]
87	0.05	–	–	COc1cc2c(cc1OC)-c1n[nH]c(Nc3cccc(SC(F)(F)F)c3)c1C2 [Compound 211, (6,7-Dimethoxy-2,4-dihydro-indeno[1,2-c]pyrazol-3-yl)-(3-trifluoromethylsulfanyl-phenyl)-amine]
108	0.092	–	–	Nc1ccc2c(c1)Cc1c-2n[nH]c1Nc1ccccc1 [Compound 66, N3-Phenyl-2,4-dihydro-indeno[1,2-c]pyrazole-3,6-diamine]
71.5	4.15	–	–	COC(=O)C(NC(=O)n1nc(Nc2cccc(F)c2)c2c1-c1cc(OC)c(OC)cc1C2)C(C)C (stereo not drawn) [Compound 530, 2-{[3-(3-Fluoro-phenylamino)-6,7-dimethoxy-4H-indeno[1,2-c]pyrazole-1-carbonyl]-amino}-3-methyl-butyric acid methyl ester]
71	3.44	–	–	Oc1cc2c(cc1O)-c1n[nH]c(Nc3cccc(Br)c3)c1C2 [Compound 125, 3-(3-Bromo-phenylamino)-2,4-dihydro-indeno[1,2-c]pyrazole-6,7-diol]
16	–	–	–	COc1cc2c(cc1OC)C(C)c1c-2n[nH]c1Nc1cc(F)ccc1F (stereo not drawn) [Compound 252, (2,5-Difluoro-phenyl)-(6,7-dimethoxy-4-methyl-2,4-dihydro-indeno[1,2-c]pyrazol-3-yl)-amine]
–	5.1	64	–	CCOc1cccc(Nc2[nH]nc3c2C(C)c2cc(OC)c(OC)cc2-3)c1 (single isomer, unassigned) [Compound 569, (6,7-Dimethoxy-4-methyl-2,4-dihydro-indeno[1,2-c]pyrazol-3-yl)-(3-ethoxy-phenyl)-amine]
109	–	–	0.0111	COc1cc2c(cc1OC)-c1n[nH]c(Nc3cccc(OC(C)C)c3)c1C2 [Compound 584, (6,7-Dimethoxy-2,4-dihydro-indeno[1,2-c]pyrazol-3-yl)-(3-isopropoxy-phenyl)-amine]
87	1.74	–	–	COc1cc2c(cc1OC)-c1nn(Cc3ccc(OC(C)=O)cc3)c(Nc3cccc(F)c3)c1C2 [Compound 499, Acetic acid 4-[3-(3-fluoro-phenylamino)-6,7-dimethoxy-4H-indeno[1,2-c]pyrazol-2-ylmethyl]-phenyl ester]
60.5	8.71	–	–	COc1cc2c(cc1OC)-c1n[nH]c(NCc3cc(F)ccc3F)c1C2 [Compound 323, (2,5-Difluoro-benzyl)-(6,7-dimethoxy-2,4-dihydro-indeno[1,2-c]pyrazol-3-yl)-amine]
73	3.29	–	–	COc1cc2c(cc1OC)-c1n[nH]c(NCC3CCCCC3)c1C2 [Compound 220, Cyclohexylmethyl-(6,7-dimethoxy-2,4-dihydro-indeno[1,2-c]pyrazol-3-yl)-amine]
59	1.41	–	–	COc1cc2c(cc1OC)-c1n[nH]c(Nc3ccc(C)cc3)c1C2 [Compound 33, (6,7-Dimethoxy-2,4-dihydro-indeno[1,2-c]pyrazol-3-yl)-p-tolyl-amine]
61.5	0.571	–	–	CCC(=O)n1nc(Nc2cccc(F)c2)c2c1-c1cc(OC)c(OC)cc1C2 [Compound 430, 1-[3-(3-Fluoro-phenylamino)-6,7-dimethoxy-4H-indeno[1,2-c]pyrazol-1-yl]-propan-1-one]
